The source of these data is PubChem BioAssay (NCI).

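Assay format: 96-well plates, 48-hour exposure. At the GI50, growth is halved. At the TGI there is no net growth.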 Some results are limits rather than exact numbers.

Among the test systems are UO-31 renal; UACC-62 melanoma; OVCAR-5 ovarian; MOLT-4 leukemia; SK-MEL-5 melanoma; CAKI-1 renal; MALME-3M melanoma; A498 renal; HS 578T breast; MDA-MB-231 breast.
Common to all, as to test: NCI-60 cell line screen, 48 h

Regarding `Nc1nc(Cl)cc(NCCCCCNc2cc(Cl)nc(N)n2)n1`, the TGI was over 100 µM with UO-31 renal; 83.9 µM in the experiment on UACC-62 melanoma; over 100 µM in the experiment on OVCAR-5 ovarian; over 100 µM in the experiment on MOLT-4 leukemia; over 100 µM in the experiment with SK-MEL-5 melanoma; over 100 µM in the experiment on CAKI-1 renal.
Consider `N.N.N.N.O=NN1CCCCCC1(P(=O)([O-])[O-])P(=O)([O-])[O-].[Pt+4].[Pt+4]`, for which the GI50 in the experiment with UO-31 renal, with UACC-62 melanoma, in the experiment with OVCAR-5 ovarian, in the experiment with MALME-3M melanoma, with MOLT-4 leukemia and in the experiment with SK-MEL-5 melanoma was over 100 µM in each case. Moreover, the GI50 in the experiment with A498 renal and with CAKI-1 renal was over 100 µM each time. Besides, the TGI in the experiment with UO-31 renal, in the experiment with UACC-62 melanoma, in the experiment on OVCAR-5 ovarian, with MALME-3M melanoma, with MOLT-4 leukemia and with SK-MEL-5 melanoma was over 100 µM in each case. Further, the TGI in the experiment on A498 renal and with CAKI-1 renal was over 100 µM in each case.
In the case of `COC(=O)NC1(NC(=O)OC)NC(=O)c2cc(OC)c(OC)cc2N1`, the TGI with UO-31 renal was over 100 µM; with UACC-62 melanoma, over 100 µM; in the experiment on OVCAR-5 ovarian, over 100 µM; in the experiment on HS 578T breast, 85.1 µM; in the experiment on SK-MEL-5 melanoma, over 100 µM; in the experiment on CAKI-1 renal it was 61.9 µM.
For the molecule `COc1cccc(NC(=O)C(C)(C)C)c1C=O`, the TGI in the experiment on UO-31 renal was 77.3 µM; in the experiment with UACC-62 melanoma, over 100 µM; in the experiment with OVCAR-5 ovarian, over 100 µM; with MALME-3M melanoma, over 100 µM; with MOLT-4 leukemia, over 100 µM; in the experiment on SK-MEL-5 melanoma, over 100 µM. For the same molecule, the TGI with A498 renal and in the experiment with CAKI-1 renal was over 100 µM throughout.
For `CC1=C(C(=O)Nc2ccccc2)C(c2ccc([N+](=O)[O-])cc2)C(C(=O)Nc2ccccc2)=C(C)N1`, the TGI was over 100 µM with UO-31 renal; 27.9 µM with UACC-62 melanoma; over 100 µM in the experiment on OVCAR-5 ovarian; over 100 µM with MALME-3M melanoma; over 100 µM with MOLT-4 leukemia; 61.7 µM with SK-MEL-5 melanoma. The same molecule registered a TGI in the experiment on A498 renal of 93 µM.
As for `O=C(NCCO)c1cc2c(cn1)[nH]c1ccccc12`, the TGI with UO-31 renal is over 100 µM; with UACC-62 melanoma, over 100 µM; in the experiment with OVCAR-5 ovarian, over 100 µM; in the experiment with MALME-3M melanoma, 43.9 µM; in the experiment with MOLT-4 leukemia, over 100 µM; in the experiment with SK-MEL-5 melanoma it was over 100 µM. Also, the TGI in the experiment with A498 renal and with CAKI-1 renal was over 100 µM throughout.
`C=CCCCn1ccc2ccccc21`: the TGI with UO-31 renal, in the experiment on UACC-62 melanoma, in the experiment with OVCAR-5 ovarian, in the experiment with MALME-3M melanoma, in the experiment with MOLT-4 leukemia and in the experiment with SK-MEL-5 melanoma was over 100 µM throughout. Moreover, in the experiment on A498 renal, the TGI is over 100 µM.
For `c1ccc(N=c2snc3scc(-c4ccccc4)n23)cc1`, the TGI was 81.4 µM with UO-31 renal; 92.1 µM in the experiment with UACC-62 melanoma; over 100 µM in the experiment on OVCAR-5 ovarian; 98.6 µM in the experiment on MALME-3M melanoma; 79.6 µM with MOLT-4 leukemia; 61.9 µM in the experiment with SK-MEL-5 melanoma. Moreover, the TGI in the experiment on A498 renal and in the experiment with CAKI-1 renal was over 100 µM each time.
On to `CCCCCCCCCCCCCCCCOCC(CN(C)CCN(C)C)OCCCCCCCCCCCCCCCC` (centres undefined), for which the TGI in the experiment with UO-31 renal, in the experiment with UACC-62 melanoma, in the experiment on OVCAR-5 ovarian, in the experiment on MALME-3M melanoma, in the experiment with MOLT-4 leukemia and with SK-MEL-5 melanoma was over 100 µM each time. For the same molecule, the TGI with A498 renal and with CAKI-1 renal was over 100 µM throughout.
Take `O=C(O)C1=C(C(=O)Nc2ccccc2)C2C=CC1C2` (centres undefined): the TGI with UO-31 renal, in the experiment with UACC-62 melanoma, in the experiment on OVCAR-5 ovarian, in the experiment on MALME-3M melanoma, in the experiment with MOLT-4 leukemia and in the experiment with SK-MEL-5 melanoma was over 100 µM in each case. For the same molecule, the TGI in the experiment on A498 renal was over 100 µM.
For `CC(=O)[O-].CC(=O)[O-].O=C(N/N=C/c1cc(Cl)cc(Cl)c1O)c1ccncc1.[Ni+2]`, the TGI in the experiment on UO-31 renal, in the experiment on UACC-62 melanoma, in the experiment with OVCAR-5 ovarian, in the experiment with MALME-3M melanoma, in the experiment with MOLT-4 leukemia and with SK-MEL-5 melanoma was over 100 µM in each case. In the experiment with A498 renal, this molecule displayed a TGI of over 100 µM.
For the molecule `COc1c2c3ccccc3nc-2n(C)c2ccccc12`, the GI50 in the experiment on UO-31 renal is 29.1 µM; with MDA-MB-231 breast it was 7.03 µM; in the experiment with UACC-62 melanoma it was 11.1 µM; with OVCAR-5 ovarian, 8.43 µM; with HS 578T breast, 42 µM; with MOLT-4 leukemia it was 4.7 µM. Moreover, the GI50 with SK-MEL-5 melanoma is 12.8 µM; with A498 renal, 10.1 µM; in the experiment on CAKI-1 renal, 19.2 µM. Moreover, the TGI is over 100 µM in the experiment on UO-31 renal; 40.4 µM with MDA-MB-231 breast; 33 µM in the experiment on UACC-62 melanoma; over 100 µM in the experiment with OVCAR-5 ovarian; over 100 µM in the experiment on HS 578T breast; over 100 µM in the experiment with MOLT-4 leukemia. Moreover, the TGI in the experiment with SK-MEL-5 melanoma was 33.1 µM; with A498 renal, 24.8 µM; in the experiment on CAKI-1 renal it was over 100 µM.
For the molecule `Cc1ccc(-n2c3nc(=O)n(C)c(=O)c-3nc3ccccc32)cc1`, the TGI in the experiment on UO-31 renal is over 100 µM; in the experiment on UACC-62 melanoma, 5.52 µM; in the experiment with OVCAR-5 ovarian, 45.3 µM; with MALME-3M melanoma it was 27.2 µM; in the experiment on MOLT-4 leukemia it was 41.2 µM; in the experiment with SK-MEL-5 melanoma, 26.2 µM. The TGI with A498 renal was over 100 µM; with CAKI-1 renal it was 70.7 µM.
For `O=C1Nc2cc(Cl)ccc2N=CC1NC(=O)C(c1ccccc1)c1ccccc1Cl` (centres undefined), the TGI with UO-31 renal, in the experiment on UACC-62 melanoma, with OVCAR-5 ovarian, with MALME-3M melanoma, with MOLT-4 leukemia and with SK-MEL-5 melanoma was over 100 µM throughout. In addition, the TGI in the experiment on A498 renal and with CAKI-1 renal was over 100 µM throughout.
Take `Cc1c(-c2ccccc2)c(=O)oc2ccc(Cl)cc12`: the TGI in the experiment on UO-31 renal, in the experiment with UACC-62 melanoma, with OVCAR-5 ovarian, in the experiment with MALME-3M melanoma, in the experiment with MOLT-4 leukemia and in the experiment on SK-MEL-5 melanoma was over 100 µM each time. The molecule further had a TGI in the experiment on A498 renal of over 100 µM.
